Test results reported in patent US9394343B2, “Appetite stimulating protein” (The Regents of the University of California, priority 2011, dated 2016).
Bridge positions count the residues as written; N and C are the ends. Ends that are not written are not given here. Peptide text beside a SMILES is read from it.

Experiments:
hMC3R [1] = biological target: T1, hMC3R (Homo sapiens, UniProt P41968); conditions: cited from earlier work
T1 construct: expressed in transfected cells; host or cells: HEK-293

hMC4R = biological target: T2, hMC4R (Homo sapiens, UniProt P32245); conditions: cited from earlier work
T2 construct: expressed in transfected cells; host or cells: HEK-293

[2] = cooperative folding, Jackson et al., 2002; cited from earlier work
[3] = cited from earlier work; for Feeding response compared with AgRP: literature
male Long-Evans rats = test: Feeding and body mass after single third cerebral ventricle (ICV) injection; assay type: in vivo, rat; conditions: single 1.0 nmol ICV dose; for Initial (24 hour) feeding response, in words: first 24 hours
hMC3R [4] = biological target: T1, hMC3R; conditions: cAMP, NDP-MSH stimulated; data adapted from the literature (footnote c); read-out: EC50, MC3R; cited from earlier work

T1 sequence (P41968 whole entry): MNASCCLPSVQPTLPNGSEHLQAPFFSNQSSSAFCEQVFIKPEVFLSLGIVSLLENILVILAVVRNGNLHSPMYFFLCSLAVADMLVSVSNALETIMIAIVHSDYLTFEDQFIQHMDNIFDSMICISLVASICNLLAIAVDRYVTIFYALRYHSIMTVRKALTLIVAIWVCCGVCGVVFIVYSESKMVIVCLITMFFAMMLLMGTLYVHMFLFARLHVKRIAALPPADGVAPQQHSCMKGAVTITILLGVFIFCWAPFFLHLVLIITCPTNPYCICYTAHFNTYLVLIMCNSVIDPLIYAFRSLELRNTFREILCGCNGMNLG
T2 sequence (P32245 whole entry): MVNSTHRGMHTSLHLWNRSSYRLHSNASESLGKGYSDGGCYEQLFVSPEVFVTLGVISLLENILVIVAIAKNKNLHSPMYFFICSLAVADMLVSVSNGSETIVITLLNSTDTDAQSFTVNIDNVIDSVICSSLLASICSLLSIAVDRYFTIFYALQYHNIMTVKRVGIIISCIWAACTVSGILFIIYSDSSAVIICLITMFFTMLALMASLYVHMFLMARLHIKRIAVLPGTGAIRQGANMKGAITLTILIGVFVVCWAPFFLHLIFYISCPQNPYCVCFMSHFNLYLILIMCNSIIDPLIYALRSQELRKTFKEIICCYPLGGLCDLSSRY

Compound: CC(=O)N[C@H]1CSSC[C@@H]2NC(=O)[C@@H]3CSSC[C@@H](C(=O)N[C@@H](CCCNC(=N)N)C(N)=O)NC(=O)[C@H](Cc4ccc(O)cc4)NC(=O)[C@@H]4CSSC[C@H](NC(=O)[C@H](Cc5ccc(O)cc5)NC(=O)[C@H](CSSC[C@H](NC(=O)[C@H](CO)NC(=O)[C@H](CCC(=O)O)NC(=O)[C@H](Cc5c[nH]cn5)NC(=O)[C@H](CC(C)C)NC(=O)[C@H](CCCNC(=N)N)NC(=O)[C@H](C(C)C)NC1=O)C(=O)N[C@@H](CC(C)C)C(=O)NCC(=O)N[C@@H](CCC(N)=O)C(=O)N[C@@H](CCC(N)=O)C(=O)N[C@@H](C(C)C)C(=O)N1CCC[C@H]1C(=O)N3)NC(=O)[C@H]([C@@H](C)O)NC(=O)[C@H](C)NC(=O)[C@H](C)NC(=O)[C@@H]1CCCN1C(=O)[C@H](CC(=O)O)NC2=O)C(=O)N[C@@H](CCCNC(=N)N)C(=O)N[C@@H](Cc1ccccc1)C(=O)N[C@@H](Cc1ccccc1)C(=O)N[C@@H](CC(N)=O)C(=O)N[C@@H](C)C(=O)N[C@@H](Cc1ccccc1)C(=O)N4 [AgRP(87-120)] (Ac-CVRLHESCLGQQVPCCDPAATCYCRFFNAFCYCR-NH2; disulfide 1-16, 8-22, 15-33, 24-31 (inferred); C-terminus assumed)
- Dissociation constant at Mc3R compared with mature AgRP(83-132) (hMC3R [1]; previous study): equivalent to mature AgRP(83-132)
- Dissociation constant at Mc4R compared with mature AgRP(83-132) (hMC4R; previous study): equivalent to mature AgRP(83-132)
- Folding stability [2]: indistinguishable from AgRP(83-132)

Compound: MTII
- Feeding after injection following AgRP administration ([3]; injected after AgRP): transiently reduces feeding

Compound: SHU9119
- Feeding response compared with AgRP [3]: long-term response similar to AgRP

Compound: mature wild type human Agouti-Related Protein, SSRR-CVRLHESCLGQQVPCCDPCATCYCRFFNAFCYC-RKLGTAMNPCSRT (SSRRCVRLHESCLGQQVPCCDPCATCYCRFFNAFCYCRKLGTAMNPCSRT; not fully specified (bridges); ends and bridges not checked; listed as Homo sapiens) [AgRP(83-132)]
- Feeding increase over control at three or four days after injection (male Long-Evans rats): about 30%
- Initial (24 hour) feeding response, in words (male Long-Evans rats): the most potent
- Initial (24 hour) feeding response, in words (male Long-Evans rats; listed as AgRP): greatly stimulate feeding
- Feeding increase over control after one day (male Long-Evans rats; first 24 hr): ~80%
- Ki (hMC4R; displacement of 125I-NDP-MSH, data adapted from the literature (footnotes a, d), read-out: Ki, MC4R): 11 ± 0.7 nM

Compound: neuropeptide Y [neuropeptide Y (NPY)]
- Feeding response compared with AgRP [3]: feeding returns to baseline after 24 hours

Compound: truncated AgRP lacking the N-terminal SSRR segment: CVRLHESCLGQQVPCCDPCATCYCRFFNAFCYC-RKLGTAMNPCSRT [AgRP(87-132)]
- Ki (hMC3R [1]; displacement of 125I-NDP-MSH, data adapted from the literature (footnote a), read-out: Ki, MC3R): 5.2 ± 0.7 nM
- EC50 (hMC3R [4]): 8.9 ± 0.2 nM
